Reference: US10959432B2, “Microbiocidal oxadiazole derivatives” (Syngenta Participations AG, priority 2016, dated 2021)

Tests used:
Uromyces viciae-fabae = assay: Fungicidal activity against Uromyces viciae-fabae / field bean / leaf disc preventative (faba-bean rust); format: in vivo; conditions: foliar, 288 h, 100 ppm in the applied formulation, field bean leaf discs, preventative (inoculated two hours after application), assessed 12 days after application, read-out: disease control compared to untreated control leaf discs
Procedure: Leaf disks or leaf segments of various plant species are cut from plants grown in a greenhouse. The cut leaf disks or segments are placed in multiwell plates (24-well format) onto water agar. The leaf disks are sprayed with a test solution before (preventative) or after (curative) inoculation. Compounds to be tested are prepared as DMSO solutions (max. 10 mg/ml) which are diluted to the appropriate concentration with 0.025% Tween20 just before spraying. The inoculated leaf disks or segments are incubated under defined conditions (temperature, relative humidity, light, etc.) according to the respective test system. A single evaluation of disease level is carried out 3 to 14 days after inoculation, depending on the pathosystem. Percent disease control relative to the untreated check leaf disks or segments is then calculated. General Examples of Liquid Culture Tests in Well Plates:
Example 5: Fungicidal Activity Against Uromyces viciae-fabae/Field Bean/Leaf Disc Preventative (Faba-Bean Rust)
Field bean leaf discs are placed on water agar in multiwell plates (96-well format) and 10 μl of the formulated test compound diluted in acetone and a spreader pipetted onto the leaf disc. Two hours after application leaf discs are inoculated by spraying a spore suspension on the lower leaf surface. The leaf discs are incubated in a climate cabinet at 22° C. with 18 hour day and 70% relative humidity. The activity of a compound is assessed as percent disease control compared to untreated when an appropriate level of disease damage appears in untreated check leaf disks (12 days after application).
The following compounds at 100 ppm in the applied formulation give at least 80% disease control in this test when compared to untreated control leaf discs under the same conditions, which show extensive disease development.

Phakopsora pachyrhizi = assay: Fungicidal activity against Phakopsora pachyrhizi / soybean / leaf disc preventative (Asian soybean rust); format: in vivo; conditions: foliar, 200 ppm in the applied formulation, soybean leaf disks, preventative (inoculated one day after application), assessed 12 to 14 days after application, read-out: disease control compared to untreated control leaf disks
Summary of the method: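 Preventative test: compound applied to soybean leaf discs a day before spore inoculation of the lower surface. Discs kept at 20° C and 75% rh, first 24-36 h in darkness, then under 12 h light/day; disease control relative to untreated discs rated 12 to 14 days post-application.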

Row | SMILES | pest or weed control at 100 ppm (Uromyces viciae-fabae) | pest or weed control at 200 ppm (Phakopsora pachyrhizi)
1 | CC(C)(C)c1cc(NC(=O)c2ccc(-c3noc(C(F)(F)F)n3)cc2F)[nH]n1 [Compound 5b.6, N-(3-tert-butyl-1H-pyrazol-5-yl)-2-fluoro-4-[5-(trifluoromethyl)-1,2,4-oxadiazol-3-yl]benzamide] | ≥ 80% | ≥ 80%
2 | O=C(Nc1ccc(F)cc1)c1ccc(-c2noc(C(F)(F)F)n2)cc1 [Compound 4a.8, N-(4-fluorophenyl)-4-[5-(trifluoromethyl)-1,2,4-oxadiazol-3-yl]benzamide] | ≥ 80% | ≥ 80%
3 | CC1CCCC(NC(=O)c2ccc(-c3noc(C(F)(F)F)n3)cc2)C1 (stereo not shown) [Compound 2a.2, N-(3-methylcyclohexyl)-4-[5-(trifluoromethyl)-1,2,4-oxadiazol-3-yl]benzamide] | ≥ 80% | ≥ 80%
4 | O=C(Nc1ccccc1)c1ccc(-c2noc(C(F)(F)F)n2)cc1F [Compound 4b.12, 2-fluoro-N-phenyl-4-[5-(trifluoromethyl)-1,2,4-oxadiazol-3-yl]benzamide] | ≥ 80% | ≥ 80%
5 | O=C(NC1CC1c1ccccc1)c1ccc(-c2noc(C(F)(F)F)n2)cc1F (stereo not shown) [Compound 2b.7, 2-fluoro-N-(2-phenylcyclopropyl)-4-[5-(trifluoromethyl)-1,2,4-oxadiazol-3-yl]benzamide] | ≥ 80% | ≥ 80%
6 | O=C(Nc1ccc(N2CCOCC2)cc1)c1ccc(-c2noc(C(F)(F)F)n2)cc1 [Compound 4a.12, N-(4-morpholinophenyl)-4-[5-(trifluoromethyl)-1,2,4-oxadiazol-3-yl]benzamide] | ≥ 80% | ≥ 80%
7 | C[C@@H](NC(=O)c1ccc(-c2noc(C(F)(F)F)n2)cc1)C1CCCCC1 [Compound 2a.8, N-[(1R)-1-cyclohexylethyl]-4-[5-(trifluoromethyl)-1,2,4-oxadiazol-3-yl]benzamide] | ≥ 80% | ≥ 80%
8 | CC(C)(C)c1cc(NC(=O)c2ccc(-c3noc(C(F)(F)F)n3)cc2)[nH]n1 [Compound 5a.2, N-(3-tert-butyl-1H-pyrazol-5-yl)-4-[5-(trifluoromethyl)-1,2,4-oxadiazol-3-yl]benzamide] | ≥ 80% | ≥ 80%
9 | O=C(NCCCn1ccnc1)c1ccc(-c2noc(C(F)(F)F)n2)cc1F [Compound 5b.12, 2-fluoro-N-(3-imidazol-1-ylpropyl)-4-[5-(trifluoromethyl)-1,2,4-oxadiazol-3-yl]benzamide] | ≥ 80% | ≥ 80%
10 | O=C(Nc1ccc(Cl)cc1)c1ccc(-c2noc(C(F)(F)F)n2)cc1 [Compound 4a.6, N-(4-chlorophenyl)-4-[5-(trifluoromethyl)-1,2,4-oxadiazol-3-yl]benzamide] | ≥ 80% | ≥ 80%
11 | CCc1cccc(NC(=O)c2ccc(-c3noc(C(F)(F)F)n3)cc2)c1 [Compound 4a.10, N-(3-ethylphenyl)-4-[5-(trifluoromethyl)-1,2,4-oxadiazol-3-yl]benzamide] | ≥ 80% | ≥ 80%
12 | O=C(Nc1ccccc1F)c1ccc(-c2noc(C(F)(F)F)n2)cc1 [Compound 4a.7, N-(2-fluorophenyl)-4-[5-(trifluoromethyl)-1,2,4-oxadiazol-3-yl]benzamide] | ≥ 80% | ≥ 80%
13 | Cc1ccc(C)c(CNC(=O)c2ccc(-c3noc(C(F)(F)F)n3)cc2)c1 [Compound 4a.11, N-[(2,5-dimethylphenyl)methyl]-4-[5-(trifluoromethyl)-1,2,4-oxadiazol-3-yl]benzamide] | ≥ 80% | ≥ 80%
14 | O=C(Nc1cccc(C(F)(F)F)c1)c1ccc(-c2noc(C(F)(F)F)n2)cc1 [Compound 4a.9, 4-[5-(trifluoromethyl)-1,2,4-oxadiazol-3-yl]-N-[3-(trifluoromethyl)phenyl]benzamide] | ≥ 80% | ≥ 80%
